The subject of test [1] is LPS-induced TNFα production. Briefly: Lipopolysaccharide (LPS)-Induced TNFα Production (Rat LPS Assay). In kind it is in vivo. As to conditions: at 20 mpk (IP).
For a further test, the system named is endotoxin-induced shock. As to conditions: murine model of endotoxin-induced shock; cited from earlier work.
The subject of another test is adjuvant arthritis. As to conditions: rat; cited from earlier work.
For test [2], the system named is collagen-induced arthritis. As to conditions: mouse; cited from earlier work.
The next test concerns MK-2. As to conditions: cited from earlier work.
The subject of the next test is granulomas. The following applies: laboratory rats; cited from earlier work.

Each structure is given as a SMILES string.

Turning to `N#Cc1c(N)nc2c(c1N)Cc1ccc(OCCN)cc1O2` [Example 12, 2,4-diamino-8-(2-aminoethoxy)-5H-chromeno[2,3-b]pyridine-3-carbonitrile], in test [1], the “Rat LPS Assay inhibition” value is reported as 88%.
Regarding `C[S+]([O-])c1ccc(-c2nc(-c3ccncc3)c(-c3ccc(F)cc3)[nH]2)cc1` (stereo not drawn) [SB203580], the mortality entry in the test on endotoxin-induced shock is listed as “reduce mortality”. For the same molecule, in the test with adjuvant arthritis, the “development of adjuvant arthritis” value was “inhibit the development”. The “development of collagen-induced arthritis” value in test [2] was “inhibit the development”. In addition, the “inhibition of activation of MK-2” value in the test on MK-2 is “inhibit activation of MK-2”.
Turning to `Nc1nccc(-c2c(-c3ccc(F)cc3)ncn2C2CCNCC2)n1` [SB 220025], the “vascular density of granulomas” value in the test on granulomas was “significant dose-dependent decrease in vascular density of granulomas”.

Values taken from patent US6909001B2 (Pharmacia Corporation, priority 2002, dated 2005).
